Measured values published in ChEMBL document CHEMBL1134787, “Synthesis and biological studies of novel nucleoside phosphoramidate prodrugs” (J Med Chem, 2001).
pIC50: −log10 of the molar value.

Legend:
Thymidylate synthase [1] = biological target: T1, Thymidylate synthase (Mus musculus, UniProt P07607); experiment: Thymidylate synthase inhibition in thymidine kinase deficient LM cells after 2 hr treatment; type: cell-based
Thymidylate synthase [2] = biological target: T1, Thymidylate synthase; experiment: Thymidylate synthase inhibition in wild type LM cells after 2 hr treatment; type: cell-based
Thymidylate synthase [3] = biological target: T1, Thymidylate synthase; experiment: Thymidylate synthase inhibition in L1210 mouse leukemia cells after 2 hr treatment; type: cell-based
Thymidylate synthase [4] = biological target: T1, Thymidylate synthase; experiment: Thymidylate synthase inhibition in thymidine kinase deficient /TK cells after 2 hr treatment
L1210 [5] = experiment: Growth inhibition in L1210 mouse leukemia cells after 8 h treatment; type: functional, cell-based; details: L1210, 8 h
L1210 [6] = experiment: Growth inhibition in L1210 mouse leukemia cells after 2 hr treatment; type: functional, cell-based; details: L1210, 2 h
L1210 [7] = experiment: Growth inhibition in L1210 mouse leukemia cells after 48 hr treatment; type: functional, cell-based; details: L1210, 48 h
L1210 [8] = experiment: Growth inhibition in L1210 mouse leukemia cells after 24 h treatment; type: functional, cell-based; details: L1210, 24 h

T1 sequence (P07607 whole entry): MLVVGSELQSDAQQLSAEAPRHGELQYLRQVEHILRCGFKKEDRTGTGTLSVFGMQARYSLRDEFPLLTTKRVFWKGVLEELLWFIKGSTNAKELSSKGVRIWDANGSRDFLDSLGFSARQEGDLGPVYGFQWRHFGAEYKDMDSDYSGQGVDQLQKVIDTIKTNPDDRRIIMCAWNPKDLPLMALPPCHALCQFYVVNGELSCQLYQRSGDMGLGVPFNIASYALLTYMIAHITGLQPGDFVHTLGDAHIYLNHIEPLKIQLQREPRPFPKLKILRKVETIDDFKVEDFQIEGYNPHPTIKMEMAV

Compound | pIC50 (Thymidylate synthase [1]) | pIC50 (Thymidylate synthase [2]) | pIC50 (Thymidylate synthase [3]) | pIC50 (Thymidylate synthase [4]) | pIC50 (L1210 [5]) | pIC50 (L1210 [6]) | pIC50 (L1210 [7]) | pIC50 (L1210 [8])
O=c1[nH]c(=O)n([C@H]2C[C@H](O)[C@@H](CO)O2)cc1F [FLOXURIDINE] | 5.27 | 6.59 | 8.10 | 7.70 | 7.64 | 7.35 | 9.19 | 8.39
CN(CCCCCl)P(=O)(OCC1=CC(=O)c2ccccc2C1=O)OC[C@H]1O[C@@H](n2cc(F)c(=O)[nH]c2=O)C[C@@H]1O (some centres not stated) | 5.23 | 6.64 | 8.00 | 7.60 | 7.80 | 7.36 | 9.20 | 8.51
CN(CCBr)P(=O)(OCc1ccc([N+](=O)[O-])o1)OC[C@H]1O[C@@H](n2cc(F)c(=O)[nH]c2=O)C[C@@H]1O (some centres not stated) |  |  |  |  | 6.46 | 5.99 | 7.80 | 7.25
CN(CCCCCl)P(=O)(OCc1ccc([N+](=O)[O-])o1)OC[C@H]1O[C@@H](n2cc(F)c(=O)[nH]c2=O)C[C@@H]1O (some centres not stated) | 5.97 | 6.25 | 7.19 | 8.72 | 7.33 | 6.94 | 8.64 | 8.14
O=c1[nH]cc(F)c(=O)[nH]1 [FLUOROURACIL] |  |  |  |  | 6.00 | 5.60 | 6.70 | 6.44
